Data as given in article PMC3081989 (Biochemistry, 2010).
Where a SMILES comes first, the peptide text is derived from it.

Key:
[1] = molecular target: T1, hRXRα-LBD:9cRA homodimers (Homo sapiens, UniProt P19793); assay: isothermal titration calorimetry; conditions: 37 °C, buffer C pH 8.0, single-site binding model
T1 sequence (P19793 223-462): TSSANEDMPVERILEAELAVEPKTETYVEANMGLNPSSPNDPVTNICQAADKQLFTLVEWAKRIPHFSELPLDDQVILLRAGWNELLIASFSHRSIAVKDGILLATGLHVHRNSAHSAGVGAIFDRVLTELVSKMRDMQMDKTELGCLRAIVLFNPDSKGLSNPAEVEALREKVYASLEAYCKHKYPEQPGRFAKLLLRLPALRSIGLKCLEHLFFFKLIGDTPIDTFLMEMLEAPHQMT

[2] = molecular target: GRIP-1 (NCOA2/TIF2) NR-box II coactivator peptide, 13-mer (UniProt Q15596); assay: ITC; conditions: pH 8.0, 25 °C, 50 mM NaCl, buffer C: 10 mM Tris
humans = conditions: cited from earlier work
hRXRα-LBD homodimer = assay: hydrogen deuterium exchange mass spectrometry; assay type: binding, human

CC[C@H](C)[C@H](NC(=O)[C@H](CCCCN)NC(=O)[C@H](Cc1c[nH]cn1)NC(=O)[C@@H](N)CCCCN)C(=O)N[C@@H](CC(C)C)C(=O)N[C@@H](Cc1c[nH]cn1)C(=O)N[C@@H](CCCNC(=N)N)C(=O)N[C@@H](CC(C)C)C(=O)N[C@@H](CC(C)C)C(=O)N[C@@H](CCC(N)=O)C(=O)N[C@@H](CC(=O)O)C(=O)N[C@@H](CO)C(=O)N[C@@H](CO)C(=O)O [GRIP-1] (H-KHKILHRLLQDSS-OH) showed a Kd [1] of 1000 ± 50 nM.

For “Retinoid X receptor alpha ligand-binding domain, homodimer loaded with 9-cis-retinoic acid (hRXRalpha-LBD:9cRA)”, the ΔH [2] was -9.15 kcal/mol.

In the case of CC1=C(/C=C/C(C)=C\C=C\C(C)=C\C(=O)O)C(C)(C)CCC1 [9cRA, 9-cis-retinoic acid], the toxicity (humans; oral administration to humans) is listed as “displays significant toxicity with oral administration to humans”, the “reduction in deuterium incorporation, peptide L419-F438 (H11)” value (hRXRα-LBD homodimer; following 15 s of deuterium incorporation, 9cRA alone) is listed as greater than 20% and the “rate of deuterium incorporation, H12 region” value (hRXRα-LBD homodimer; hRXRα-LBD:9cRA versus apo-hRXRα-LBD, GRIP-1 added to hRXRα-LBD:9cRA) is listed as “unaltered rates of incorporation”. The “change in deuterium incorporation of peptides around the ligand binding pocket” value (hRXRα-LBD homodimer; relative to apo-hRXRα-LBD, upon 9cRA binding) was 10–37% and the “reduction in deuterium incorporation, peptide L301-L308 (H4)” value (hRXRα-LBD homodimer; text: upon the addition of GRIP-1 versus in the presence of 9cRA alone) was 12%.

In the case of C=C(c1ccc(C(=O)O)cc1)c1cc2c(cc1C)C(C)(C)CCC2(C)C [Targretin], the “dose limiting toxicities compared with 9cRA” value (humans; oral treatment of cutaneous T-cell lymphoma) is listed as “significantly fewer dose limiting toxicities than 9cRA”.
